Measurements reported in patent US20220354870A1, “READY-TO-USE BUPIVISONE PLUS LIQUID FORMULATION” (LEITERS, Inc., priority 2021, published 2022).
Entries after “also recorded” stand apart in the source; their conditions may differ. Where a name gives a salt, the structure may show the parent alone.

Assays:
Format in all cases: physicochemical
[1] = Potency after room temperature storage of syringe in nitrogen-flushed hermetically sealed pouch (Example 4); conditions: formulation of Table 4 (no preservative) in syringe, hermetically sealed pouch flushed with nitrogen
Protocol: A preliminary evaluation of the feasibility of packaging syringes was performed. Hermetically sealed pouch containing a syringe with the exemplary formulation from Table 4 was flushed with nitrogen to reduce oxygen levels.

[2] = Stability testing of syringed formulation with methylparaban (Example 2); conditions: stability study
Protocol: (§1) The samples were produced using an approved batch record and shipped to contract laboratories for stability testing. The samples were stored according to ICH Q1A (R2) as follows: • Long term: Refrigerated (5° C. ±3° C.) in Horizontal Orientation, Protected from Light • Accelerated Condition: Room Temperature (25° C. ±2° C. and 40% RH ±5% RH) Horizontal Orientation, Protected from Light
(§2) The method development procedure for the strength and potency aligned with the defined criteria in USP <1225> for a stability indicating method. The procedures used for microbiology testing were based on method suitability performed at T0.

[3] = Stability testing of syringed formulation prepared without preservative (Example 3); conditions: stability study
Protocol: The formulations without a preservative were prepared following the method described in Example 1 except no preservative(s) was used.
as §1, §2

| Compound | Potency (% label claim) after storage at room temperature for 90 days [1] | Impurities of the active versus FDA/ICH guidelines ([2]; hydrochloride) | Impurities of the active versus FDA/ICH guidelines ([2]; listed as Bupivicaine, hydrochloride) | Impurities of the active versus limits of ICH guidelines, FDA and in-house SOP [3] | Impurities of the active versus FDA/ICH guidelines [2] |
| --- | --- | --- | --- | --- | --- |
| CCCCN1CCCCC1C(=O)Nc1c(C)cccc1C (stereo not shown) [Bupivacaine HCl, bupivacaine hydrochloride] | 97.2% | met FDA/ICH Guidelines | met the acceptable limits | met the acceptable limits | – |
| CNC[C@H](O)c1ccc(O)c(O)c1 [Epinephrine, epinephrine] | 104.2% | – | – | met the acceptable limits | met FDA/ICH Guidelines; also recorded: met the acceptable limits |
